Measured values as given in ChEMBL document CHEMBL1133767, “Novel nonsubstrate inhibitors of human thymidine phosphorylase, a potential target for tumor-dependent angiogenesis” (J Med Chem, 2000).
pIC50: −log10 of the molar value.

What was measured:
Thymidine phosphorylase [1] = target: T1, Thymidine phosphorylase (Homo sapiens, UniProt P19971); assay: Inhibition of anabolic activity of human thymidine phosphorylase
T1 sequence (P19971 whole entry): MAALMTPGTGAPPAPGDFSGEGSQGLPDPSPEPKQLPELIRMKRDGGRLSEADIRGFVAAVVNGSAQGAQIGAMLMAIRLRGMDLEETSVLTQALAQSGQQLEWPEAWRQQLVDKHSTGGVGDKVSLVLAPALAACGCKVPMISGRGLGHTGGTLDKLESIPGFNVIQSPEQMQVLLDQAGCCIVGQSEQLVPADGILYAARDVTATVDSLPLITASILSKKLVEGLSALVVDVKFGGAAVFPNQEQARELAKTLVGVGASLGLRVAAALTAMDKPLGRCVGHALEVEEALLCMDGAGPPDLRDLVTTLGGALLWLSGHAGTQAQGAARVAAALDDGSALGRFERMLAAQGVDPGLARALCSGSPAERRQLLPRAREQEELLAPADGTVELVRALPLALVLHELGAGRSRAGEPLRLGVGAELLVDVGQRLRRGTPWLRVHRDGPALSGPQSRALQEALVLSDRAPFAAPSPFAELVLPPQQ

Thymidine phosphorylase [2] = target: T1, Thymidine phosphorylase; assay: Inhibition of catabolic activity of human thymidine phosphorylase
[3] = target: T2, Thymidine phosphorylase (Homo sapiens) (UniProt P19971); assay: Percent inhibition by compound was measured on Human Thymidine Phosphorylase using 100 uM thymine
T2 sequence (whole entry): T1 sequence (P19971 whole entry)

| Structure (SMILES) | pIC50 (Thymidine phosphorylase [1]) | pIC50 (Thymidine phosphorylase [2]) | inhibition [3] |
| --- | --- | --- | --- |
| Oc1cc(NCCc2ccccc2)nc(O)n1 | 3.70 | 3.83 |  |
| Nc1cc(O)nc(O)n1 |  |  | 41% |
| O=c1cc(NCc2ccccc2)[nH]c(=O)[nH]1 |  | < 3.70 |  |
